Usually viscosity stands for the internal friction of a fluid under shear. In general, mass density refers to the mass of a sample divided by its volume.

The conditions of data set [1]: 100 kPa, Liquid; for viscosity: Falling or rolling sphere viscometry; for mass density: Vibrating tube method.
Data set [2] can be described thus: xn = mol fraction of the nth substance listed. The settings on record: 100 kPa, Liquid, x2 = 0; for viscosity: Falling or rolling sphere viscometry; for mass density: Vibrating tube method.

± gives the expanded uncertainty stated by the source.

As for `CCCCC1CCCCC1` [butylcyclohexane], the viscosity in data set [1] (293.15 K) was found to be 1.296 ± 0.014 mPa·s; in data set [1] (298.15 K), 1.196 ± 0.013 mPa·s; in data set [1] (303.15 K), 1.107 ± 0.013 mPa·s; in data set [1] (308.15 K), 1.027 ± 0.013 mPa·s; in data set [1] (313.15 K), 0.958 ± 0.012 mPa·s. In addition, the mass density is on record as 799.44 ± 0.15 kg/m3 in data set [1] (293.15 K); 795.7 ± 0.15 kg/m3 in data set [1] (298.15 K); 791.95 ± 0.15 kg/m3 in data set [1] (303.15 K); 788.19 ± 0.15 kg/m3 in data set [1] (308.15 K); 784.41 ± 0.15 kg/m3 in data set [1] (313.15 K).
In the case of `CCCCCCCCCC` [decane], the viscosity turned out to be 0.93 ± 0.012 mPa·s in data set [1] (293.15 K); 0.864 ± 0.012 mPa·s in data set [1] (298.15 K); 0.806 ± 0.012 mPa·s in data set [1] (303.15 K); 0.755 ± 0.011 mPa·s in data set [1] (308.15 K); 0.709 ± 0.011 mPa·s in data set [1] (313.15 K). Further, the mass density came to 730.52 ± 0.16 kg/m3 in data set [1] (293.15 K); 726.76 ± 0.16 kg/m3 in data set [1] (298.15 K); 722.97 ± 0.16 kg/m3 in data set [1] (303.15 K); 719.17 ± 0.16 kg/m3 in data set [1] (308.15 K); 715.36 ± 0.17 kg/m3 in data set [1] (313.15 K).
Turning to `CCCCCCCCCC` [decane] + CCCCC1CCCCC1, the viscosity in data set [2] (293.15 K) was 0.93 ± 0.012 mPa·s; in data set [2] (298.15 K), 0.864 ± 0.012 mPa·s; in data set [2] (303.15 K) it was 0.806 ± 0.012 mPa·s; in data set [2] (308.15 K) it was 0.755 ± 0.011 mPa·s; in data set [2] (313.15 K), 0.709 ± 0.011 mPa·s. For the same compound, the mass density in data set [2] (293.15 K) came out at 730.52 ± 0.16 kg/m3; in data set [2] (298.15 K), 726.76 ± 0.16 kg/m3; in data set [2] (303.15 K) it was 722.97 ± 0.16 kg/m3; in data set [2] (308.15 K), 719.17 ± 0.16 kg/m3; in data set [2] (313.15 K), 715.36 ± 0.17 kg/m3.
As for `CCCCCCCCCCCC` [dodecane], the viscosity in data set [1] (293.15 K) is 1.5 ± 0.015 mPa·s; in data set [1] (298.15 K) it was 1.376 ± 0.014 mPa·s; in data set [1] (303.15 K), 1.265 ± 0.013 mPa·s; in data set [1] (308.15 K) it was 1.167 ± 0.013 mPa·s; in data set [1] (313.15 K), 1.081 ± 0.013 mPa·s. In addition, the mass density in data set [1] (293.15 K) is 749 ± 0.16 kg/m3; in data set [1] (298.15 K), 745.38 ± 0.16 kg/m3; in data set [1] (303.15 K), 741.75 ± 0.16 kg/m3; in data set [1] (308.15 K), 738.12 ± 0.16 kg/m3; in data set [1] (313.15 K) it was 734.48 ± 0.16 kg/m3.
As to `CCCCCCCCCCCC` [dodecane] + CCCCC1CCCCC1, the viscosity stood at 1.5 ± 0.015 mPa·s in data set [2] (293.15 K); 1.376 ± 0.014 mPa·s in data set [2] (298.15 K); 1.265 ± 0.013 mPa·s in data set [2] (303.15 K); 1.167 ± 0.013 mPa·s in data set [2] (308.15 K); 1.081 ± 0.013 mPa·s in data set [2] (313.15 K). For the same compound, the mass density in data set [2] (293.15 K) was determined as 749 ± 0.16 kg/m3; in data set [2] (298.15 K) it was 745.38 ± 0.16 kg/m3; in data set [2] (303.15 K), 741.75 ± 0.16 kg/m3; in data set [2] (308.15 K) it was 738.12 ± 0.16 kg/m3; in data set [2] (313.15 K), 734.48 ± 0.16 kg/m3.
As to `CCCCCCC` [heptane], the viscosity came to 0.421 ± 0.01 mPa·s in data set [1] (293.15 K); 0.398 ± 0.01 mPa·s in data set [1] (298.15 K); 0.378 ± 0.01 mPa·s in data set [1] (303.15 K); 0.352 ± 0.01 mPa·s in data set [1] (308.15 K); 0.337 ± 0.01 mPa·s in data set [1] (313.15 K). In addition, the mass density turned out to be 683.99 ± 0.17 kg/m3 in data set [1] (293.15 K); 679.74 ± 0.18 kg/m3 in data set [1] (298.15 K); 675.41 ± 0.18 kg/m3 in data set [1] (303.15 K); 671.12 ± 0.18 kg/m3 in data set [1] (308.15 K); 666.92 ± 0.18 kg/m3 in data set [1] (313.15 K).
Turning to `CCCCCCC` [heptane] + CCCCC1CCCCC1, the viscosity in data set [2] (293.15 K) is 0.421 ± 0.01 mPa·s; in data set [2] (298.15 K) it was 0.398 ± 0.01 mPa·s; in data set [2] (303.15 K) it was 0.378 ± 0.01 mPa·s; in data set [2] (308.15 K) it was 0.352 ± 0.01 mPa·s; in data set [2] (313.15 K), 0.337 ± 0.01 mPa·s. Also, the mass density in data set [2] (293.15 K) is recorded as 683.99 ± 0.17 kg/m3; in data set [2] (298.15 K) it was 679.74 ± 0.18 kg/m3; in data set [2] (303.15 K), 675.41 ± 0.18 kg/m3; in data set [2] (308.15 K) it was 671.12 ± 0.18 kg/m3; in data set [2] (313.15 K) it was 666.92 ± 0.18 kg/m3.
In the case of `CCCCCCCCC` [nonane], the viscosity in data set [1] (293.15 K) turned out to be 0.725 ± 0.011 mPa·s; in data set [1] (298.15 K), 0.679 ± 0.011 mPa·s; in data set [1] (303.15 K) it was 0.639 ± 0.011 mPa·s; in data set [1] (308.15 K), 0.604 ± 0.011 mPa·s; in data set [1] (313.15 K) it was 0.572 ± 0.011 mPa·s. Also, the mass density stood at 717.88 ± 0.16 kg/m3 in data set [1] (293.15 K); 714 ± 0.17 kg/m3 in data set [1] (298.15 K); 710.1 ± 0.17 kg/m3 in data set [1] (303.15 K); 706.19 ± 0.17 kg/m3 in data set [1] (308.15 K); 702.26 ± 0.17 kg/m3 in data set [1] (313.15 K).
For `CCCCCCCCC` [nonane] + CCCCC1CCCCC1, the viscosity in data set [2] (293.15 K) was found to be 0.725 ± 0.011 mPa·s; in data set [2] (298.15 K), 0.679 ± 0.011 mPa·s; in data set [2] (303.15 K) it was 0.639 ± 0.011 mPa·s; in data set [2] (308.15 K), 0.604 ± 0.011 mPa·s; in data set [2] (313.15 K), 0.572 ± 0.011 mPa·s. In addition, the mass density stood at 717.88 ± 0.16 kg/m3 in data set [2] (293.15 K); 714 ± 0.17 kg/m3 in data set [2] (298.15 K); 710.1 ± 0.17 kg/m3 in data set [2] (303.15 K); 706.19 ± 0.17 kg/m3 in data set [2] (308.15 K); 702.26 ± 0.17 kg/m3 in data set [2] (313.15 K).
`CCCCCCCC` [octane]: the viscosity is 0.546 ± 0.011 mPa·s in data set [1] (293.15 K); 0.521 ± 0.011 mPa·s in data set [1] (298.15 K); 0.49 ± 0.011 mPa·s in data set [1] (303.15 K); 0.467 ± 0.011 mPa·s in data set [1] (308.15 K); 0.442 ± 0.011 mPa·s in data set [1] (313.15 K). The mass density in data set [1] (293.15 K) came out at 702.86 ± 0.17 kg/m3; in data set [1] (298.15 K), 698.85 ± 0.17 kg/m3; in data set [1] (303.15 K), 694.8 ± 0.17 kg/m3; in data set [1] (308.15 K), 690.73 ± 0.17 kg/m3; in data set [1] (313.15 K) it was 686.63 ± 0.17 kg/m3.
As to `CCCCCCCC` [octane] + CCCCC1CCCCC1, the viscosity in data set [2] (293.15 K) is given as 0.546 ± 0.011 mPa·s; in data set [2] (298.15 K) it was 0.521 ± 0.011 mPa·s; in data set [2] (303.15 K) it was 0.49 ± 0.011 mPa·s; in data set [2] (308.15 K), 0.467 ± 0.011 mPa·s; in data set [2] (313.15 K), 0.442 ± 0.011 mPa·s. For the same compound, the mass density in data set [2] (293.15 K) is listed as 702.86 ± 0.17 kg/m3; in data set [2] (298.15 K) it was 698.85 ± 0.17 kg/m3; in data set [2] (303.15 K) it was 694.8 ± 0.17 kg/m3; in data set [2] (308.15 K), 690.73 ± 0.17 kg/m3; in data set [2] (313.15 K), 686.63 ± 0.17 kg/m3.
Consider `CCCCCCCCCCCCCC` [tetradecane], for which the viscosity in data set [1] (293.15 K) is given as 2.329 ± 0.019 mPa·s; in data set [1] (298.15 K), 2.096 ± 0.018 mPa·s; in data set [1] (303.15 K), 1.898 ± 0.017 mPa·s; in data set [1] (308.15 K), 1.729 ± 0.016 mPa·s; in data set [1] (313.15 K) it was 1.584 ± 0.015 mPa·s. The mass density in data set [1] (293.15 K) worked out at 763.09 ± 0.15 kg/m3; in data set [1] (298.15 K), 759.57 ± 0.15 kg/m3; in data set [1] (303.15 K), 756.03 ± 0.15 kg/m3; in data set [1] (308.15 K) it was 752.51 ± 0.16 kg/m3; in data set [1] (313.15 K) it was 748.98 ± 0.16 kg/m3.
Take `CCCCCCCCCCCCCC` [tetradecane] + CCCCC1CCCCC1: the viscosity is reported as 2.329 ± 0.019 mPa·s in data set [2] (293.15 K); 2.096 ± 0.018 mPa·s in data set [2] (298.15 K); 1.898 ± 0.017 mPa·s in data set [2] (303.15 K); 1.729 ± 0.016 mPa·s in data set [2] (308.15 K); 1.584 ± 0.015 mPa·s in data set [2] (313.15 K). Also, the mass density in data set [2] (293.15 K) is listed as 763.09 ± 0.15 kg/m3; in data set [2] (298.15 K), 759.57 ± 0.15 kg/m3; in data set [2] (303.15 K), 756.03 ± 0.15 kg/m3; in data set [2] (308.15 K), 752.51 ± 0.16 kg/m3; in data set [2] (313.15 K), 748.98 ± 0.16 kg/m3.

Source of the values: the NIST ThermoML archive (doi:10.1021/je400835u).
